Our source for the ID50, inhibition and Activity values is ChEMBL document CHEMBL1159248, “Tyrosinase inhibitors from Bolivian medicinal plants” (J Nat Prod, 1995).

Activity calls are given as the source filed them. The rule behind the calls is not given here.

In experiment [1] the target is T1, Tyrosinase (Agaricus bisporus) (UniProt O42713).
T1 sequence (whole entry): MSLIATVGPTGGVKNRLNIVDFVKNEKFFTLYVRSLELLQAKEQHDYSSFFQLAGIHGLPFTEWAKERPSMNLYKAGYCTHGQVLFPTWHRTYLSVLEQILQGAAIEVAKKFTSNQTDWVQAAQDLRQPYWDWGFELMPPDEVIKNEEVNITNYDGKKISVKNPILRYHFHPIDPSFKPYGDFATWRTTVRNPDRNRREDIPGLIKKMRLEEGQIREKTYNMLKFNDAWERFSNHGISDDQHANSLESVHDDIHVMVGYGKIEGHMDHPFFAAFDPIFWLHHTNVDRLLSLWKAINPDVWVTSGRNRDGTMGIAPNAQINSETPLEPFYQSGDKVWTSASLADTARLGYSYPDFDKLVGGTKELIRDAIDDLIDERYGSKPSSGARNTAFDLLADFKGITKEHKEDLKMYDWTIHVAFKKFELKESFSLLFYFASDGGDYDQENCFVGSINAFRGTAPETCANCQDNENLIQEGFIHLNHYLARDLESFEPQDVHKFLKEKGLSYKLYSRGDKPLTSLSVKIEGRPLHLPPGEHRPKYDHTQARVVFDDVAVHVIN
Description: Inhibition of mushroom tyrosinase assessed as L-3,4-dihydroxyphenylalanine oxidation.

For experiment [2], the target named is T1, Tyrosinase (Agaricus bisporus). Description: Inhibition of mushroom tyrosinase assessed as L-3,4-dihydroxyphenylalanine at 100 ug/ml.
Experiment [3] has the same target. Briefly: Competitive inhibition of mushroom tyrosinase assessed as L-3,4-dihydroxyphenylalanine oxidation.

With `O=C(/C=C/c1ccc(O)cc1)OC[C@H]1O[C@@H](Oc2cc(O)c3c(=O)c(O)c(-c4ccc(O)cc4)oc3c2)[C@H](O)[C@@H](O)[C@@H]1O`, in experiment [1], the ID50 worked out at 390 µM.

For orientation: inhibition means the change of the read-out against control, counted positive when it falls. Regarding `O=c1cc(-c2ccc(O[C@@H]3O[C@H](CO)[C@@H](O)[C@H](O)[C@H]3O)c(O)c2)oc2cc(O)cc(O)c12`, in experiment [2], the inhibition was found to be 100%.

For the compound `O=C(O[C@H]1O[C@@H]2COC(=O)c3cc(O)c(O)c(O)c3-c3c(cc(O)c(O)c3O)C(=O)O[C@H]2[C@@H]2OC(=O)c3cc(O)c(O)c(O)c3-c3c(cc(O)c(O)c3O)C(=O)O[C@@H]12)c1cc(O)c(O)c(Oc2c(C(=O)O[C@H]3O[C@@H]4COC(=O)c5cc(O)c(O)c(O)c5-c5c(cc(O)c(O)c5O)C(=O)O[C@H]4[C@@H]4OC(=O)c5cc(O)c(O)c(O)c5-c5c(cc(O)c(O)c5O)C(=O)O[C@@H]34)cc(O)c(O)c2O)c1`, the ID50 in experiment [1] is 61 µM.

Turning to `COc1cc(/C=C/C(=O)OC[C@H]2O[C@@H](Oc3cc(O)c4c(=O)c(O)c(-c5ccc(O)cc5)oc4c3)[C@H](O)[C@@H](O)[C@@H]2O)ccc1O`, the ID50 in experiment [1] worked out at 440 µM.

`O=c1c(O)c(-c2ccc(O)c(O)c2)oc2cc(O)cc(O)c12`: in experiment [1], the ID50 came to 70 µM. In addition, the result in experiment [3] was Active.

With `O=C(O)c1ccc(O)cc1`, the ID50 in experiment [1] came out at 1900 µM. Moreover, the outcome in experiment [3] was Active.
